From PubChem BioAssay AID1996
≈ marks a conversion by molar mass, not a printed value.

Conditions: buffer; pH 7.4; 200.0 µM

| SMILES | solubility kinetic |
| --- | --- |
| O=C1CSC(c2cccc([N+](=O)[O-])c2)N1c1ccccc1F (stereo not given) | 37.7 µg/mL (≈ 118 µM) |
| O=C1CCc2ccccc2N1Cc1ccccc1 | 32.5 µg/mL (≈ 137 µM) |
| CN1/C(=C/C(=O)C2CC2)C(C)(C)c2ccccc21 | 8.3 µg/mL (≈ 34.4 µM) |
| CC1CCCC(NC(=O)c2ccc(COc3ccccc3)o2)C1C (stereo not given) | 2.2 µg/mL (≈ 6.72 µM) |
| COc1ccc(C(=O)N2CCC2)cc1S(=O)(=O)NCc1ccc(Cl)cc1 | 57.4 µg/mL (≈ 145 µM) |
| Cc1ccc(Cl)cc1NC(=O)N[C@@H](CC(C)C)C(=O)O | 43.8 µg/mL (≈ 147 µM) |
| Cc1c(-c2ccccc2)cnc2c(C)cccc12 | < 0.5 µg/mL |
| Cc1cccc(C(=O)NC(=S)NCc2ccccc2)c1 | 2.4 µg/mL (≈ 8.44 µM) |
| Cc1ccc(C(=O)NC(C)c2ccncc2)o1 (stereo not given) | > 34.5 µg/mL |
| O=C(NCCCO)c1c(O)c2cccc3c2n(c1=O)CCC3 | > 45.3 µg/mL |
| COCCN(CCOC)C(=O)N1CCOCC1 | > 36.9 µg/mL |
| CC(C)(C)c1nc(N)nc(=O)[nH]1 | 23.9 µg/mL (≈ 142 µM) |
| CCOc1cc(C)c(S(=O)(=O)N2CCCCC2)cc1C | 14.5 µg/mL (≈ 48.8 µM) |
| COC(=O)C(=CC(=CN(C)C)C=C(C(=O)OC)C(=O)OC)C(=O)OC | > 53.3 µg/mL |
| CCNC(=S)Nc1ccc(Cc2ccncc2)cc1 | 38.3 µg/mL (≈ 141 µM) |
| OC(CNC1Cc2ccccc2C1)c1ccccc1 (stereo not given) | > 38 µg/mL |
| COC(=O)c1ccccc1-c1cn(C)c2ccccc2c1=O | > 44 µg/mL |
| Cc1cc(C)c(C)c(S(=O)(=O)N2CCCN(C)CC2)c1C | > 46.6 µg/mL |
| CC(C)NC(=O)/C(C#N)=C\c1ccc(N(C)C)o1 | > 37.1 µg/mL |
| O=C(NCc1c(Cl)cccc1Oc1ccccc1)c1ccccc1 | 0.9 µg/mL (≈ 2.66 µM) |

| SMILES | solubility kinetic |
| --- | --- |
| O=C(Cc1ccc(Cl)cc1)Nc1cccc2ncccc12 | 3.9 µg/mL (≈ 13.1 µM) |
| O=C(O)CN1C(=O)C(=O)N(Cc2ccc(Cl)c(Cl)c2)C1=O | 46.1 µg/mL (≈ 139 µM) |
| COc1cccc(-c2ocnc2C(=O)Nc2ccc3c(c2)CCC3)c1 | < 0.4 µg/mL |
| Cc1ccc(NC(=O)c2ccccc2NC(=O)c2cccnc2)cc1 | < 0.2 µg/mL |
| Cc1cc(/C=C(\C#N)C(=O)N2CCCCC2)cc(C)c1O | > 42.7 µg/mL |
| Cc1ccc(C)c(NC(=O)N2CCc3ccccc3C2)c1 | 18.9 µg/mL (≈ 67.4 µM) |
| CSc1nc(N)nc(C(C)C)n1 | > 27.6 µg/mL |
| COc1ccccc1C(=O)NCC(=O)N1CCN(C/C=C/c2ccccc2)CC1 | > 59 µg/mL |
| Cc1ccc2nc(C)c3c(c2c1)SCC3 | 11.3 µg/mL (≈ 52.5 µM) |
| Cn1c(N)c(C(=O)CSc2nnc(N)s2)c(=O)n(C)c1=O | > 49.3 µg/mL |
| Cc1cc(C)cc(NC(=O)CC2Oc3ccc(C)cc3NC2=O)c1 (stereo not given) | 1.6 µg/mL (≈ 4.93 µM) |
| CC(C)[C@H](NC(=O)c1ccccc1Cl)C(=O)OCC(=O)N1CCCCC1 | > 57.1 µg/mL |
| COc1ccc(N2Cc3ccccc3C2=O)cc1 | 12.8 µg/mL (≈ 53.5 µM) |
| Cc1cccc(NC(=O)CSc2nc3ccccc3c(=O)n2C)c1 | 0.5 µg/mL (≈ 1.47 µM) |
| O=C(NCCc1c[nH]c2ccccc12)C(=O)NCC1CCCO1 (stereo not given) | 9 µg/mL (≈ 28.5 µM) |
| COc1cc2ncnc(NCc3ccc4c(c3)OCO4)c2cc1OC | 3.3 µg/mL (≈ 9.72 µM) |
| OCC1(Cc2ccccc2)CCN(Cc2ccccn2)CC1 | > 44.5 µg/mL |
| CC(NC(=O)C(=O)NCC1CCCO1)c1ccccc1 (stereo not given) | > 41.5 µg/mL |
| CN(C(=O)c1ccoc1)c1ccc2ccccc2c1 | 29.1 µg/mL (≈ 116 µM) |
| Cc1cc(=O)c(C(=O)O)nn1-c1ccccc1Cl | > 39.7 µg/mL |

| SMILES | solubility kinetic |
| --- | --- |
| Cl.N#C/C(=C/c1cc(Cl)c(O)c(Cl)c1)C(=O)N1CCCCC1 | > 54.2 µg/mL |
| CCCCNC(=O)CSc1nc(CCC)nc2ccccc12 | 4 µg/mL (≈ 12.6 µM) |
| COc1ccc(NC(=O)COC(=O)c2ccc([N+](=O)[O-])o2)cc1Cl | 19.2 µg/mL (≈ 54.1 µM) |
| COC(=O)Nc1ccc(S(=O)(=O)N2CCCC(C(=O)O)C2)cc1 (stereo not given) | 50.4 µg/mL (≈ 147 µM) |
| C=CCCCCCCCCC(=O)Nc1ncccn1 | 6.8 µg/mL (≈ 26 µM) |
| COC(=O)CCC(=O)Nc1ccc2oc3c(c2c1)CCCC3 | 43.5 µg/mL (≈ 144 µM) |
| CN1CCN(c2ccc(CNS(=O)(=O)Cc3ccc(Cl)cc3)cc2)CC1 | 2.8 µg/mL (≈ 7.11 µM) |
| NC(=NC(=O)c1ccc(OCC(F)(F)F)nc1)c1ccccc1 | 6.6 µg/mL (≈ 20.4 µM) |
| Cc1nc2ccc(NC(=O)c3cccs3)cc2s1 | 8.4 µg/mL (≈ 30.6 µM) |
| Cc1cc(C(=O)Nc2ccccc2Cl)c2ccccc2n1 | 36.8 µg/mL (≈ 124 µM) |
| O=C(NC(=S)Nc1ccc(F)cc1)C1CCCCC1 | 1.3 µg/mL (≈ 4.64 µM) |
| O=C(Nc1cccc(Cl)c1)c1cc(-c2ccco2)on1 | 0.8 µg/mL (≈ 2.77 µM) |
| CC(C)(C)c1csc(NC(=O)c2c(F)c(F)c(F)c(F)c2F)n1 | 21.3 µg/mL (≈ 60.8 µM) |
| C[C@@H](C(=O)Nc1nc2ccccc2s1)N1C(=O)C2CC=CCC2C1=O (stereo not given in full) | 45.2 µg/mL (≈ 127 µM) |
| CCOC(=O)N1CCN(C(=O)Nc2cccc3ccccc23)CC1 | > 49.1 µg/mL |
| CCC1CCC2(CC1)SCC(=O)N2c1ccccc1 (stereo not given) | 5.7 µg/mL (≈ 20.7 µM) |
| Cc1csc2c(=O)sc(NC(=O)c3ccc(F)cc3)nc12 | < 0.3 µg/mL |
| C=CCn1c(=O)c(C(=O)Nc2ccc(C)cc2)c(O)c2ccccc21 | < 0.4 µg/mL |
| COc1ccc(-c2csc(-c3cccs3)n2)c(OC)c1 | 0.8 µg/mL (≈ 2.64 µM) |
| CCOC(=O)c1cnc2[nH]c3ccccc3n2c1=O | 23 µg/mL (≈ 89.4 µM) |
